Measurements: PubChem BioAssay AID1963856 (Molecular Pharmacology Branch, DTP, NCI, 2024)

System: LG0567-F671-PDC KRAS tumor spheroid viability
Experiment: Anticancer human tumor LG0567-F671-PDC patient-derived lung adenocarcinoma cell line growth inhibition [KRAS2]
Conditions: spheroids with HUVEC and MSC; for IC50: curve of first compound; for viability, T/C: stronger effect = lower value
In short: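 Combination screen of spheroid viability in tumor-cell co-cultures with endothelial (HUVEC) and mesenchymal stem cell stroma. Each agent was tested in half-log dilutions, topping at clinical Cmax or at 10 microM without a known Cmax.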

[1] = second compound 0.1 µM, first compound 0.0316 µM
[2] = second compound 0.1 µM, first compound 0.1 µM
[3] = second compound 0.1 µM, first compound 0.316 µM
[4] = second compound 0.1 µM, first compound 1 µM
[5] = second compound 0.1 µM, first compound 3.16 µM
[6] = second compound 0.1 µM, first compound 10 µM
[7] = second compound 0.316 µM, first compound 0.0316 µM
[8] = second compound 0.316 µM, first compound 0.1 µM
[9] = second compound 0.316 µM, first compound 0.316 µM
[10] = second compound 0.316 µM, first compound 1 µM
[11] = second compound 0.316 µM, first compound 3.16 µM
[12] = second compound 0.316 µM, first compound 10 µM
[13] = second compound 1 µM, first compound 0.0316 µM
[14] = second compound 1 µM, first compound 0.1 µM
[15] = second compound 1 µM, first compound 0.316 µM
[16] = second compound 1 µM, first compound 1 µM
[17] = second compound 1 µM, first compound 3.16 µM
[18] = second compound 1 µM, first compound 10 µM
[19] = second compound 3.16 µM, first compound 0.0316 µM
[20] = second compound 3.16 µM, first compound 0.1 µM
[21] = second compound 3.16 µM, first compound 0.316 µM
[22] = second compound 3.16 µM, first compound 1 µM
[23] = second compound 3.16 µM, first compound 3.16 µM
[24] = second compound 3.16 µM, first compound 10 µM
[25] = second compound 10 µM, first compound 0.0316 µM
[26] = second compound 10 µM, first compound 0.1 µM
[27] = second compound 10 µM, first compound 0.316 µM
[28] = second compound 10 µM, first compound 1 µM
[29] = second compound 10 µM, first compound 3.16 µM
[30] = second compound 10 µM, first compound 10 µM
[31] = second compound 0.0316 µM, first compound 0.0316 µM
[32] = second compound 0.0316 µM, first compound 0.1 µM
[33] = second compound 0.0316 µM, first compound 0.316 µM
[34] = second compound 0.0316 µM, first compound 1 µM
[35] = second compound 0.0316 µM, first compound 3.16 µM
[36] = second compound 0.0316 µM, first compound 10 µM
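Also: drug exposure lasted seven days after spheroids formed for three days.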
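For viability, T/C in this document: 100% = DMSO vehicle control viability.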

SMILES	IC50 (second compound 0.1 µM) [nM]	IC50 (second compound 0.316 µM) [nM]	IC50 (second compound 1 µM) [nM]	IC50 (second compound 3.16 µM) [nM]	viability, T/C [1] [%]	viability, T/C [2] [%]	viability, T/C [3] [%]	viability, T/C [4] [%]	viability, T/C [5] [%]	viability, T/C [6] [%]	viability, T/C [7] [%]	viability, T/C [8] [%]	viability, T/C [9] [%]	viability, T/C [10] [%]	viability, T/C [11] [%]	viability, T/C [12] [%]	viability, T/C [13] [%]	viability, T/C [14] [%]	viability, T/C [15] [%]	viability, T/C [16] [%]	other results
CC1(C)CCC(CN2CCN(c3ccc(C(=O)NS(=O)(=O)c4ccc(NCC5CCOCC5)c([N+](=O)[O-])c4)c(Oc4cnc5[nH]ccc5c4)c3)CC2)=C(c2ccc(Cl)cc2)C1 + COc1cc2nc(C)nc(NC(C)c3cc(N)cc(C(F)(F)F)c3)c2cc1OC1CCOC1	1510	1360	1360	1220	73.5	67.3	59	68.8	18.8	11.7	67.5	66.5	61.2	59.6	25	7.5	69	73.3	72.6	58.7	IC50 (second compound 10 µM): 640 nM; viability, T/C [17]: 24.1%; viability, T/C [18]: 3.67%; viability, T/C [19]: 70.2%; viability, T/C [20]: 70.7%; viability, T/C [21]: 62.8%; viability, T/C [22]: 57.8%; viability, T/C [23]: 15.6%; viability, T/C [24]: 5.87%; viability, T/C [25]: 81.3%; viability, T/C [26]: 76.5%; viability, T/C [27]: 63%; viability, T/C [28]: 42.7%; viability, T/C [29]: 14.1%; viability, T/C [30]: 1.67%
CC(C)NCC(C(=O)N1CCN(c2ncnc3c2C(C)CC3O)CC1)c1ccc(Cl)cc1 (stereo not given) + C=CC(=O)N1CCN(c2nc(OCC3CCCN3C)nc3c2CCN(c2cccc4cccc(C)c24)C3)CC1CC#N	< 31.6	< 31.6	< 31.6	< 31.6	28.5	27.5	18.6	20.1	17	13.4	33.9	29.3	21	19.5	18.6	15.4	38.6	32.3	24.6	18.2	IC50 (second compound 0.0316 µM): < 31.6 nM; viability, T/C [31]: 36%; viability, T/C [32]: 33.7%; viability, T/C [33]: 24.6%; viability, T/C [34]: 22.8%; viability, T/C [35]: 22.4%; viability, T/C [36]: 19.8%; viability, T/C [17]: 15.3%; viability, T/C [18]: 13.3%; viability, T/C [19]: 8.92%; viability, T/C [20]: 7.61%; viability, T/C [21]: 4.92%; viability, T/C [22]: 2.79%; viability, T/C [23]: 3.43%; viability, T/C [24]: 0.37%
CC(C)NCC(C(=O)N1CCN(c2ncnc3c2C(C)CC3O)CC1)c1ccc(Cl)cc1 (stereo not given) + C=CC(=O)N1CCN(c2nc(=O)n(-c3c(C)ccnc3C(C)C)c3nc(-c4c(O)cccc4F)c(F)cc23)C(C)C1	< 31.6	< 31.6	< 31.6	< 31.6	31.4	25.9	19.8	14	14.5	12.8	26.5	28.5	20.9	13.7	13.7	10.6	30.6	26.5	17	15.9	IC50 (second compound 10 µM): < 31.6 nM; viability, T/C [17]: 14.4%; viability, T/C [18]: 12.6%; viability, T/C [19]: 29.9%; viability, T/C [20]: 21.2%; viability, T/C [21]: 19.9%; viability, T/C [22]: 19.1%; viability, T/C [23]: 13.3%; viability, T/C [24]: 11.3%; viability, T/C [25]: 25.8%; viability, T/C [26]: 17%; viability, T/C [27]: 15.6%; viability, T/C [28]: 13.3%; viability, T/C [29]: 15%; viability, T/C [30]: 11%
CC1OCC2(CCN(c3cnc(Sc4ccnc(N)c4Cl)c(N)n3)CC2)C1N (stereo not given) + C=CC(=O)N1CCN(c2nc(OCC3CCCN3C)nc3c2CCN(c2cccc4cccc(C)c24)C3)CC1CC#N	< 31.6	< 31.6	< 31.6	< 31.6	24.7	14.6	13.5	7.14	3.83	4.19	26.3	17.8	12.3	10	5.4	3.32	20.1	15.6	11.5	7.73	IC50 (second compound 0.0316 µM): < 31.6 nM; viability, T/C [31]: 28.3%; viability, T/C [32]: 18.1%; viability, T/C [33]: 16.3%; viability, T/C [34]: 11.3%; viability, T/C [35]: 5.27%; viability, T/C [36]: 4.04%; viability, T/C [17]: 5.45%; viability, T/C [18]: 6.7%; viability, T/C [19]: 29.1%; viability, T/C [20]: 21.1%; viability, T/C [21]: 17.2%; viability, T/C [22]: 8.14%; viability, T/C [23]: 5.63%; viability, T/C [24]: 4.39%
Cn1nccc1Nc1nccc(-c2cc3c(s2)C(C)(C)N(CCN2CCOCC2)C3=O)n1 + CNCc1ccccc1-c1csc(C(C)Nc2nc(C)nc3cc(OC)c(OC)cc23)c1	581	557	340	794	83.6	68.6	59.6	44.1	31.7	32	66.2	65.1	54.2	46	28.3	26.8	66.2	66.1	49.7	35.6	IC50 (second compound 10 µM): < 31.6 nM; viability, T/C [17]: 29.1%; viability, T/C [18]: 26.3%; viability, T/C [19]: 73.9%; viability, T/C [20]: 71.7%; viability, T/C [21]: 53.3%; viability, T/C [22]: 44.7%; viability, T/C [23]: 36.6%; viability, T/C [24]: 1.09%; viability, T/C [25]: 0.21%; viability, T/C [26]: 0.18%; viability, T/C [27]: 0.76%; viability, T/C [28]: 0.16%; viability, T/C [29]: 1.91%; viability, T/C [30]: 0.18%
